From ChEMBL document CHEMBL5120901, “Batatasin III, a Constituent of Dendrobium scabrilingue, Improves Murine Pain-like Behaviors with a Favorable CNS Safety Profile” (J Nat Prod, 2022)
The source made the active and inactive calls.

Assays:
[1] = system: Mus musculus; assay: Anti-inflammatory activity against LPS-induced inflammatory pain-like behaviour ICR mouse model assessed as reduction in IL-6 levels in plasma at 50 mg/kg, ip treated with LPS for 2 hrs followed by drug administration for 1 hr by ELISA; type: functional, organism-based
[2] = system: Mus musculus; assay: (§1) Anti-inflammatory activity against LPS-induced inflammatory pain-like behaviour ICR mouse model assessed as improvement in locomotor activity by measuring increase in animal's movement speed in LABORAS arena at 50 mg/kg, ip treated with LPS for 2 hrs followed by drug administration for 1 hr and measured for 5 mins by LABORAS analysis; type: functional, organism-based; details: time 65.0 min
[3] = system: Mus musculus; assay: Analgesic activity against formalin-induced inflammatory pain-like behaviour ICR mouse model assessed as inhibition of hind paw licking behaviour at 50 mg/kg, ip administered 60 mins prior to formalin challenge and measured after 10 to 40 mins by formalin test; type: functional; details: time 70-100 min
[4] = CNS toxicity in naive ICR mouse assessed as spontaneous locomotor activity by measuring rearing behaviour at 50 mg/kg, ip and measured for 30 mins by LABORAS automated behavioral analysis; type: organism-based; details: in vivo, 0.5 h
[5] = system: BV-2; assay: Cytotoxicity against […] cells assessed as reduction in cell viability at 100 uM incubated for 24 hrs by MTT assay; type: toxicity, cell-based; details: mouse, bv-2, 24 h
[6] = system: RAW264.7; assay: Cytotoxicity against mouse RAW264.7 cells assessed as reduction in cell viability at 100 uM incubated for 24 hrs by MTT assay; type: toxicity, cell-based; details: raw264.7, 24 h
[7] = system: Mus musculus; assay: as §1, with “distance travelled” for “animal's movement speed”; type: functional, organism-based; details: time 65.0 min
[8] = CNS toxicity in naive ICR mouse assessed as spontaneous locomotor activity by measuring climbing behaviour at 50 mg/kg, ip and measured for 30 mins by LABORAS automated behavioral analysis; type: organism-based; details: in vivo, 0.5 h
[9] = CNS toxicity in naive ICR mouse assessed as spontaneous locomotor activity by measuring animal's movement speed in arena at 50 mg/kg, ip and measured for 30 mins by LABORAS automated behavioral analysis; type: organism-based; details: in vivo, 0.5 h
[10] = system: RAW264.7; assay: Anti-inflammartory activity against LPS-activated mouse RAW264.7 cells assessed as reduction in IL-6 levels pretreated with compound for 1 hr followed by incubation with LPS for 12 hrs by ELISA; type: functional, cell-based; details: dose 12.5-50 µM, time 13.0 hrs, DDE = dose-dependent effect
[11] = system: Mus musculus; assay: Analgesic activity against formalin-induced inflammatory pain-like behaviour ICR mouse model assessed as inhibition of hind paw licking behaviour at 12.5 to 50 mg/kg, ip administered 60 mins prior to formalin challenge and measured after 10 to 40 mins by formalin test; type: functional, organism-based; details: dose 12.5-50 mg/kg, time 70-100 min, DDE = dose-dependent effect
[12] = Toxicity in naive ICR mouse assessed as effect on body weight at 50 mg/kg, ip measured after 24 hrs; type: organism-based; details: in vivo
[13] = CNS toxicity in naive ICR mouse assessed as spontaneous locomotor activity by measuring immobility behaviour at 50 mg/kg, ip and measured for 30 mins by LABORAS automated behavioral analysis; type: organism-based; details: in vivo, 0.5 h
[14] = system: BV-2; assay: Anti-inflammartory activity against LPS-activated […] cells assessed as reduction in TNF-alpha levels pretreated with compound for 1 hr followed by co-incubation with LPS for 24 hrs by ELISA; type: functional, cell-based; details: Mus musculus, dose 12.5-50 µM, time 25.0 hrs, DDE = dose-dependent effect
[15] = CNS toxicity in naive ICR mouse assessed as spontaneous locomotor activity by measuring distance travelled in arena at 50 mg/kg, ip and measured for 30 mins by LABORAS automated behavioral analysis; type: organism-based; details: in vivo, 0.5 h
[16] = CNS toxicity in naive ICR mouse assessed as spontaneous locomotor activity by measuring distance travelled in arena at 50 mg/kg, ip and measured for 2 hrs by LABORAS automated behavioral analysis; type: organism-based; details: in vivo
[17] = CNS toxicity in naive ICR mouse assessed as spontaneous locomotor activity by measuring climbing behaviour at 50 mg/kg, ip and measured for 2 hrs by LABORAS automated behavioral analysis; type: organism-based; details: in vivo
[18] = system: RAW264.7; assay: Anti-inflammartory activity against LPS-activated mouse RAW264.7 cells assessed as reduction in TNF-alpha levels pretreated with compound for 1 hr followed by incubation with LPS for 12 hrs by ELISA; type: functional, cell-based; details: dose 12.5-50 µM, time 13.0 hrs, DDE = dose-dependent effect
[19] = Toxicity in naive ICR mouse assessed as effect on water intake at 50 mg/kg, ip measured after 24 hrs; type: organism-based; details: in vivo
[20] = CNS toxicity in naive ICR mouse assessed as spontaneous locomotor activity at 50 mg/kg, ip and measured for 30 mins by LABORAS automated behavioral analysis; type: organism-based; details: in vivo, 0.5 h
[21] = system: RAW264.7; assay: Anti-inflammartory activity in mouse RAW264.7 cells assessed as inhibition of LPS-induced NO production pretreated with compound for 1 hr followed by incubation with LPS for 12 hrs by Griess reagent based analysis; type: functional, cell-based; details: dose 12.5-50 µM, time 13.0 hrs, DDE = dose-dependent effect
[22] = CNS toxicity in naive ICR mouse assessed as spontaneous locomotor activity by measuring immobility behaviour at 50 mg/kg, ip and measured for 2 hrs by LABORAS automated behavioral analysis; type: organism-based; details: in vivo
[23] = system: BV-2; assay: Anti-inflammatory activity in […] cells assessed as inhibition of LPS-induced NO production pretreated with compound for 1 hr followed by coincubation with LPS for 24 hrs by Griess reagent based analysis; type: functional, cell-based; details: Mus musculus, dose 12.5-50 µM, time 25.0 hrs, DDE = dose-dependent effect
[24] = CNS toxicity in naive ICR mouse assessed as spontaneous locomotor activity by measuring anaimal's movement speed in arena at 50 mg/kg, ip and measured for 2 hrs by LABORAS automated behavioral analysis; type: organism-based; details: in vivo
[25] = system: Mus musculus; assay: as §1, with “increased mobile behaviours” for “increase in animal's movement speed in LABORAS arena”; type: functional, organism-based; details: time 65.0 min
[26] = system: BV-2; assay: Anti-inflammartory activity against LPS-activated […] cells assessed as reduction in IL-6 levels pretreated with compound for 1 hr followed by co-incubation with LPS for 24 hrs by ELISA; type: functional, cell-based; details: Mus musculus, dose 12.5-50 µM, time 25.0 hrs, DDE = dose-dependent effect
[27] = Toxicity in naive ICR mouse assessed as effect on food intake at 50 mg/kg, ip measured after 24 hrs; type: organism-based; details: in vivo
[28] = CNS toxicity in naive ICR mouse assessed as spontaneous locomotor activity at 50 mg/kg, ip and measured for 2 hrs by LABORAS automated behavioral analysis; type: organism-based; details: in vivo
[29] = CNS toxicity in naive ICR mouse assessed as spontaneous locomotor activity by measuring rearing behaviour at 50 mg/kg, ip and measured for 2 hrs by LABORAS automated behavioral analysis; type: organism-based; details: in vivo
[30] = system: Mus musculus; assay: as §1, with “decrease” for “increase”, “immobility behaviour” for “animal's movement speed in LABORAS arena”; type: functional, organism-based; details: time 65.0 min
[31] = system: Mus musculus; assay: Anti-inflammatory activity against LPS-induced inflammatory pain-like behaviour ICR mouse model assessed as reduction in TNF-alpha levels in plasma at 50 mg/kg, ip treated with LPS for 2 hrs followed by drug administration for 1 hr by ELISA; type: functional, organism-based
[32] = CNS toxicity in naive ICR mouse assessed as motor coordination at 50 mg/kg, ip measured after 240 mins by rotarod test; type: organism-based; details: in vivo, 4 h
[33] = CNS toxicity in naive ICR mouse assessed as reduction in spontaneous locomotor activity by measuring reduction in climbing behaviour at 5 mg/kg, ip and measured for 2 hrs by LABORAS automated behavioral analysis; type: organism-based; details: in vivo
[34] = CNS toxicity in naive ICR mouse assessed as reduction in spontaneous locomotor activity by measuring increase in immobility behaviour at 5 mg/kg, ip and measured for 30 mins by LABORAS automated behavioral analysis; type: organism-based; details: in vivo, 0.5 h
[35] = CNS toxicity in naive ICR mouse assessed as reduction in spontaneous locomotor activity at 5 mg/kg, ip and measured for 2 hrs by LABORAS automated behavioral analysis; type: organism-based; details: in vivo
[36] = CNS toxicity in naive ICR mouse assessed as reduction in spontaneous locomotor activity by measuring reduction in distance travelled in arena at 5 mg/kg, ip and measured for 30 mins by LABORAS automated behavioral analysis; type: organism-based; details: in vivo, 0.5 h
[37] = CNS toxicity in naive ICR mouse assessed as reduction in spontaneous locomotor activity by measuring reduction in rearing behaviour at 5 mg/kg, ip and measured for 30 mins by LABORAS automated behavioral analysis; type: organism-based; details: in vivo, 0.5 h
[38] = CNS toxicity in naive ICR mouse assessed as reduction in spontaneous locomotor activity by measuring reduction in animal's movement speed in arena at 5 mg/kg, ip and measured for 30 mins by LABORAS automated behavioral analysis; type: organism-based; details: in vivo, 0.5 h
[39] = CNS toxicity in naive ICR mouse assessed as reduction in spontaneous locomotor activity by measuring reduction in climbing behaviour at 5 mg/kg, ip and measured for 30 mins by LABORAS automated behavioral analysis; type: organism-based; details: in vivo, 0.5 h
[40] = CNS toxicity in naive ICR mouse assessed as reduction in spontaneous locomotor activity by measuring reduction in animal's movement speed in arena at 5 mg/kg, ip and measured for 2 hrs by LABORAS automated behavioral analysis; type: organism-based; details: in vivo
[41] = CNS toxicity in naive ICR mouse assessed as reduction in spontaneous locomotor activity by measuring reduction in rearing behaviour at 5 mg/kg, ip and measured for 2 hrs by LABORAS automated behavioral analysis; type: organism-based; details: in vivo
[42] = CNS toxicity in naive ICR mouse assessed as reduction in spontaneous locomotor activity at 5 mg/kg, ip and measured for 30 mins by LABORAS automated behavioral analysis; type: organism-based; details: in vivo, 0.5 h
[43] = CNS toxicity in naive ICR mouse assessed as reduction in spontaneous locomotor activity by measuring reduction in distance travelled in arena at 5 mg/kg, ip and measured for 2 hrs by LABORAS automated behavioral analysis; type: organism-based; details: in vivo
[44] = CNS toxicity in naive ICR mouse assessed as reduction in spontaneous locomotor activity by measuring increase in immobility behaviour at 5 mg/kg, ip and measured for 2 hrs by LABORAS automated behavioral analysis; type: organism-based; details: in vivo
[45] = CNS toxicity in naive ICR mouse assessed as motor coordination at 5 mg/kg, ip measured after 240 mins by rotarod test; type: organism-based; details: in vivo, 4 h
[46] = CNS toxicity in naive ICR mouse assessed as reduction in rotarod latency time at 5 mg/kg, ip measured at <240 mins by rotarod test; type: organism-based; details: in vivo, 4 h
[47] = system: Mus musculus; assay: Analgesic activity against formalin-induced inflammatory pain-like behaviour ICR mouse model assessed as inhibition of hind paw licking behaviour at 10 mg/kg, ip administered 60 mins prior to formalin challenge and measured after 10 to 40 mins by formalin test; type: functional; details: time 70-100 min
[48] = system: Mus musculus; assay: as §1, with “decrease” for “increase”, “immobility behaviour” for “animal's movement speed in LABORAS arena”, “10” for “50”; type: functional, organism-based; details: time 65.0 min
[49] = system: Mus musculus; assay: as §1, with “10” for “50”; type: functional, organism-based; details: time 65.0 min
[50] = system: Mus musculus; assay: Anti-inflammatory activity against LPS-induced inflammatory pain-like behaviour ICR mouse model assessed as reduction in IL-6 levels in plasma at 10 mg/kg, ip treated with LPS for 2 hrs followed by drug administration for 1 hr by ELISA; type: functional, organism-based
[51] = system: Mus musculus; assay: as §1, with “distance travelled” for “animal's movement speed”, “10” for “50”; type: functional, organism-based; details: time 65.0 min
[52] = system: Mus musculus; assay: as §1, with “increased mobile behaviours” for “increase in animal's movement speed in LABORAS arena”, “10” for “50”; type: functional, organism-based; details: time 65.0 min
[53] = system: Mus musculus; assay: Anti-inflammatory activity against LPS-induced inflammatory pain-like behaviour ICR mouse model assessed as reduction in TNF-alpha levels in plasma at 10 mg/kg, ip treated with LPS for 2 hrs followed by drug administration for 1 hr by ELISA; type: functional, organism-based

COc1cc(O)cc(CCc2cccc(O)c2)c1 [BATATASIN III]
Non-Toxic: Activity [4] | Activity [8] | Activity [9] | Activity [12] | Activity [13] | Activity [15] | Activity [16] | Activity [17] | Activity [19] | Activity [20] | Activity [22] | Activity [24] | Activity [27] | Activity [28] | Activity [29] | Activity [32]
Toxic: Activity [5] | Activity [6]
69.9%: inhibition in vivo at 50 mg/kg [3]
active: Activity [1] | Activity [2] | Activity [7] | Activity [10] Dde | Activity [11] Dde | Activity [14] Dde | Activity [18] Dde | Activity [21] Dde | Activity [23] Dde | Activity [25] | Activity [26] Dde | Activity [30] | Activity [31]

CN(C)CCCN1c2ccccc2Sc2ccc(Cl)cc21 [CHLORPROMAZINE]
Toxic: Activity [33] | Activity [34] | Activity [35] | Activity [36] | Activity [37] | Activity [38] | Activity [39] | Activity [40] | Activity [41] | Activity [42] | Activity [43] | Activity [44] | Activity [46]
Non-Toxic: Activity [45]

COc1ccc2c(c1)c(CC(=O)O)c(C)n2C(=O)c1ccc(Cl)cc1 [INDOMETHACIN]
71.6%: inhibition in vivo at 10 mg/kg [47]
active: Activity [48] | Activity [49] | Activity [50] | Activity [51] | Activity [52] | Activity [53]
